The record followed here is patent US20190117675A1, “Compositions And Methods To Treat And/Or Prevent Vision Disorders Of The Lens Of The Eye” (Helix Holding Company, priority 2014, published 2019).

Experiment [1] concerns aggregates of various WT and mutated crystallins. Briefly: In vitro protein assay: dissociation of preformed crystallin aggregates (turbidity, soluble protein, EM). It counts as biochemical. As to conditions: 37° C.; for dissociation of aggregates of various WT and mutated crystallins: in vitro protein assay, 50 μM sterol in 50 μM DPPS liposome. The protocol:
Evaluation of the effect of lanosterol on the dissolution of crystallin aggregates by turbidity. Crystallin aggregates were formed by incubating 5mgml21 protein solution at 60° C. for 2 h (α-crystallins) or 37° C. for 48 h (β- and γ-crystallins) in the presence of 1M guanidine chloride. The preformed aggregates were re-suspended in PBS at a final protein concentration of 0.2 mg/ml and were treated with 500 μM sterols in 500 μM DPPC liposome and incubated at 37° C. for 24 h. Aggregates treated with 500 μM DPPC liposome only were used as the controls.
The α-crystallin aggregates were formed by incubating 5 mg/ml protein solutions at 60° C. for 48 h in the presence of 1 M guanidine chloride. The β- and γ-crystallin aggregates were prepared by incubating the protein solutions at 37° C. and pH 3 for 48 h. The preformed aggregates were re-suspended in PBS with a final protein concentration of 0.1 mg/ml. The re-suspended aggregates were treated by 50 μM sterols in 50 μM DPPS liposome and incubated at 37° C. for 144 h. The aggregates treated by 50 μM DPPS liposome were used as the controls. The supernatant and precipitation fractions were separated by centrifugation. The protein concentrations in the supernatant fraction were determined by absorbance at 280 nm and the percentages of the soluble proteins were calculated from three independent repetitions.
The recombinant his-tagged WT and mutated β- and γ-crystallin proteins were overexpressed in E. coli Rosetta and purified by Ni-NTA affinity column followed by gel filtration chromatography using the same protocol as those described elsewhere 13,14,16,18. The overexpression and purification of the non-tagged αA- and αB-crystallins were performed as described previously 19. The purity of the proteins were estimated to be above 95% as evaluated by one homogeneous band on 12.5% SDS-PAGE, 10% native-PAGE and a single peak in the size-exclusion chromatographyprofile. The protein concentration was determined according to the Bradford method by using BSA as the standard 20. All protein samples were prepared in 20 mM PBS buffer containing 150 mM NaCl, 1 mM EDTA and 1 mM DTT.
The aggregates of the WT and mutated αA- and αB-crystallin proteins were obtained by heating the proteins solutions containing 1 M guanidine chloride (ultrapure, Sigma) with a concentration of 5 mg/ml at 60° C. for 48 h. The aggregates of the WT and mutated β- and γ-crystallins were prepared by heating the protein solutions at pH 3 and 37° C. for 48 h. The formation of aggregates was confirmed by turbidity (absorbance at 400 nm) and transmission electron microscope (EM) measurements. The preformed aggregates were resuspended in 20 mM PBS with a final concentration of 0.1 mg/ml (approximately 5 μM). The resuspended aggregates were treated by 50 μM lanosterol or cholesterol in liposomes formed by 50 μM DPPS at 37° C. After 72 h treatment, the protein solutions were used for negative-stained EM observations. After 144 h incubation, the protein solutions were used for turbidity measurements and determinations of protein concentrations in the soluble fractions. The soluble proteins were determined by centrifuge the protein solutions to separate the supernatant and precipitation fractions. Then the protein concentration in the supernatant was determined by the Bradford method. The EM samples were prepared by depositing the protein solutions onto a freshly glow-discharged carbon coated copper grid. […]

For the next experiment, the system named is dog eyes with cataracts. Put plainly: Treatment of cataract lenses in dogs. The experiment is classed as in vivo. As to conditions: dog eyes treated with lanosterol for 6 weeks (intravitreal nanoparticles plus eye drops three times daily). The protocol:
Grading System of Dog Cataract • Grade 0: absence of opacification (no cataract); • Grade 1: a slight degree of opacification (incipient stage); • Grade 2: presence of diffuse opacification involving almost the entire lens (immature stage); • Grade 3: presence of extensive thick opacification involving the entire lens (mature stage)
To assess the effect of lanosterol treatment on cataract in live animals, left eye of dogs with bilateral cataract were treated for topical eye drops. The right eye of each animal was administered one drop of vehicle, 3 times a day so that the drop coated the eye. One drop of lanosterol was administered to the left eye of each animal in the same manner. Both eyes of some control animals were treated for vehicle. […] Each lens was recorded by photography. Degree of cataract was assessed using AREDS cataract grading system.
This study was approved by TACUC of Zhongshan Ophthalmic Center and West China Hospital. […] Degree of cataract was assessed by a blinded examiner and scored based on canine cataract stage, shown below. Improvements in lens clarity and transparency were quantified. […]
The mixture solution was then stirred for 2 h to allow the nanoparticles to form and the acetonitrile to evaporate. […] The loading yield of lanosterol was quantified by high performance liquid chromatography.

SMILES strings stand for the structures.

With `CC(C)=CCC[C@@H](C)[C@H]1CC[C@@]2(C)C3=C(CC[C@]12C)[C@@]1(C)CC[C@H](O)C(C)(C)[C@@H]1CC3` [Lanosterol], the “dissolution of crystallin aggregates by turbidity” value in experiment [1] (500 μM sterols in 500 μM DPPC liposome, 24 h, 0.2 mg/ml protein) was “could dissociate the aggregates”. Besides, the “dissociation of aggregates of various WT and mutated crystallins” value is “can dissociate the preformed amyloid-like fibrils/aggregates” in experiment [1] and “could dissociate the aggregates” in experiment [1] (listed as lanosterol). In the experiment on dog eyes with cataracts, the “cataract severity and lens clarity” value was “reduced cataract severity and increased lens clarity”.
